# Laboratory results taken from patent US9327025B2, “Enriched 10-boron composition for cancer therapy and a method of synthesizing the same” (priority 2012, dated 2016).
# Read-outs that look alike come from different tables or passages of the source.
# Tests used:
# [1] = system: MDA-MB241 cell line (malignant breast cells); settings: 24 hours
# Protocol: MTT assay method was applied for evaluating the effects of Boron complex on MDA-MB241 cell line (malignant breast cells) in in vitro environment.
# This is due to the fact that since food composition was used in the synthesis of the drug, tumor cells think that they are provided with food compostions. But after a while the number of cells will decrease by the drug. For different concentrations of Boron including 5 mg, 10 mg, 25 mg, 50 mg and 100 mg, these decreases are equal to 80, 50, 64, 79, and 36. After 48 hours similar results with little differences have been observed with 24 hours time interval.
# [2] = cancerous mice; in vitro and in vivo tests
# From the text: In this research, a new smart drug, Enriched Boron-10 Calcium Fructo Borate (E^10BCFB), was investigated for using in cancer cells treatment in BNCT methods. […] E^10BCFB is in fact an artificial Calcium Fructo-Borate which is synthesized chemically with 10-Boron.
# [3] = system: breast cancer cells MDA-MB-231
substance,measurement,setting,value
Enriched 10-Boron Calcium Fructo Borate [E^10BCFB],decrease of the number of cells (MTT),[1]; concentration of Boron 5 mg,80
same,decrease of the number of cells (MTT),[1]; concentration of Boron 10 mg,50
same,decrease of the number of cells (MTT),[1]; concentration of Boron 25 mg,64
same,decrease of the number of cells (MTT),[1]; concentration of Boron 50 mg,79
same,decrease of the number of cells (MTT),[1]; concentration of Boron 100 mg,36
same,concentration ratio of tumor to the 10-Boron concentration in the blood,3 hours after injection of 41.1 mg complex per 30 gram animal weight,about 4.5
same,concentration of 10-Boron in the blood,"3 hours after intraperitoneal injection of 41.1 mg complex per 30 gram animal weight, blood",about 6.1 ppm
same,accumulation of 10-Boron in tumor cells,"3 hours after intraperitoneal injection of 41.1 mg complex per 30 gram animal weight, tumor",about 27 ppm
same,safety of the drug,[2],safe
same,growth of breast cancer cells,[3]; MDA-MB-231,prevents the growth of breast cancer cells
same,Caspase-3 activity,[3]; tumor cells treated with the drug,increases the Caspase-3 activity
